In PubChem BioAssay (NCI):
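All cell lines were grown in 96-well plates and treated with compound for 48 hours. TGI: concentration producing complete growth inhibition.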

Key:
Experiment in all cases: inhibition of tumour cell growth, NCI panel, 48 h
SF-295 CNS = system: SF-295 CNS
UACC-257 melanoma = system: UACC-257 melanoma
NCI-H23 lung = system: NCI-H23 lung
HOP-62 NSCLC = system: HOP-62 NSCLC
DU-145 prostate = system: DU-145 prostate
OVCAR-8 ovarian = system: OVCAR-8 ovarian
HCT-116 colon = system: HCT-116 colon
MOLT-4 leukemia = system: MOLT-4 leukemia
SK-MEL-2 melanoma = system: SK-MEL-2 melanoma
SK-MEL-28 melanoma = system: SK-MEL-28 melanoma

Structure (SMILES)	TGI (SF-295 CNS) [µM]	TGI (UACC-257 melanoma) [µM]	TGI (NCI-H23 lung) [µM]	TGI (HOP-62 NSCLC) [µM]	TGI (DU-145 prostate) [µM]	TGI (OVCAR-8 ovarian) [µM]	TGI (HCT-116 colon) [µM]	TGI (MOLT-4 leukemia) [µM]	TGI (SK-MEL-2 melanoma) [µM]	TGI (SK-MEL-28 melanoma) [µM]
CC(C)c1cc(=O)[nH]c2cc(N)ccc12	> 100	> 100	> 100	> 100	> 100	> 100	> 100	> 100	> 100	> 100
Nc1nc(Sc2ccc([N+](=O)[O-])c3nonc23)c2[nH]cnc2n1	16.1	9.14	10.9	18.1	16.2	9.7	3.89	1.8	6.32	22.3
CNC(=O)[C@H](Cc1ccccc1)NC(=O)N(CCC#N)CCN(C(=O)N[C@@H](Cc1ccccc1)C(=O)OC)c1ccccc1	> 100	> 100	> 100	> 100	> 100	> 100	> 100	> 100	> 100	> 100
O=C1NC(N2CCCC(CO)C2)=N/C1=C\c1cccs1 (stereo not given)	> 100	> 100	> 100	> 100	> 100	> 100	> 100	> 100	> 100	> 100
COc1cccc(NC(=O)CC(=O)NN)c1	> 100	> 100	> 100	> 100	> 100	> 100	> 100	> 100	> 100	> 100
COCN1C(=O)[C@@H]2CCCN2C(=O)c2ccc(N)cc21	> 100	> 100	> 100	> 100	> 100	> 100	> 100	> 100	> 100	> 100
COC(=O)/C=C(C)/C=C\COC1CCCCO1 (stereo not given)	> 100	> 100	> 100	> 100	> 100	> 100	> 100	> 100	> 100	> 100
CNC(=O)OCc1cnc([N+](=O)[O-])n1C	> 100	> 100	> 100	> 100	> 100	> 100	> 100	> 100	> 100	> 100
Cc1ccc(C(=O)N/N=C(\N=Nc2ccc([N+](=O)[O-])cc2)c2ccc(N(CCC#N)CCC#N)cc2C)cc1	> 100	> 100	> 100	> 100	> 100	> 100	> 100	> 100	> 100	> 100
Nc1nc(N)c2nc(CN(C=O)c3ccc(C(=O)O)cc3)cnc2n1	> 100	> 100	> 100	> 100	> 100	> 100	> 100	> 100	> 100	> 100
COC(=O)c1ccccc1C1CN=NC12Cc1ccc(C)cc1C2=O (stereo not given)	> 100	> 100	> 100	> 100	> 100	> 100	> 100	> 100	> 100	> 100
C[N+](C)(CCNc1ccc(NCC[N+](C)(C)Cc2ccc([N+](=O)[O-])cc2)c2c1C(=O)c1c(O)ccc(O)c1C2=O)Cc1ccc([N+](=O)[O-])cc1	> 50	> 50	> 50	> 50	> 50	> 50	> 50	> 5	> 50	> 50
CCN(CC)c1c(C(C)(C)C)c(=O)n2ccsc2c1OC(C)=O	30.7	30.7	30.7	26.1	38.7	29.1	26.5	> 100	31	30.8
O=c1c(-c2nc3ccccc3c3ccccc3c2=O)nc2ccccc2c2ccccc12	> 100	> 100	> 100	> 100	> 100	> 100	71.6	> 100	> 100	> 100
O/N=C\c1c2c(cc3c1CCC3)CCC2	> 100	> 100	> 100	> 100	> 100	> 100	> 100	> 100	> 100	> 100
Cc1nn2c(=O)c([N+](=O)[O-])c(/C=C/c3ccc(F)cc3)nc2s1	22.8	22.3	23.5	22.9	> 31.6	16	15.1	28.6	19.3	19.7

Structure (SMILES)	TGI (SF-295 CNS) [µM]	TGI (UACC-257 melanoma) [µM]	TGI (NCI-H23 lung) [µM]	TGI (HOP-62 NSCLC) [µM]	TGI (DU-145 prostate) [µM]	TGI (OVCAR-8 ovarian) [µM]	TGI (HCT-116 colon) [µM]	TGI (MOLT-4 leukemia) [µM]	TGI (SK-MEL-2 melanoma) [µM]	TGI (SK-MEL-28 melanoma) [µM]
O=CN1CCN(c2ccc3ccc(=O)[nH]c3n2)CC1	> 100	> 100	> 100	> 100	> 100	> 100	> 100	> 100	> 100	> 100
CC(=O)O[C@H]1[C@@H](N2CCOCC2)C[C@H]2[C@@H]3CC=C4C[C@@H](N5CCCC5)CC[C@]4(C)[C@H]3CC[C@@]21C	> 100	> 100	> 100	> 100	> 100	> 100	> 100	> 100	> 100	> 100
CCCOC(=O)c1cc(O)c(O)c(O)c1	> 100	> 100	> 100	> 100	> 100	> 100	45.3	> 100	> 100	> 100
NC1=Nc2cc(C(F)(F)F)ccc2Sc2nc3ccccc3n21	> 100	> 100	> 100	> 100	> 100	> 100	> 100	> 100	> 100	> 100
NCCCN(CCCCN(CCCN)CCCc1ccccc1)CCCc1ccccc1	3.16	3.45	17.4	25.4	23.8	27	3.02	5.21	3.25	2.98
CCOP1(=O)CC(C)=C(Cl)C(OC)C1 (stereo not given)	> 100	> 100	> 100	> 100	> 100	> 100	> 100	> 100	> 100	> 100
CCOC(=O)N1c2ccccc2C(C)=CC(C)C1C (stereo not given)	68.3	88.5	60.1	> 100	> 100	44.1	40.1	> 100	> 100	> 100
O=C1c2cc3c(cc2NC(c2ccccc2F)C1O)OCO3 (stereo not given)	43.6	> 100	> 91.5	> 66.1	> 100	71.9	> 35.7	> 83.9	> 100	> 79.4
CN(C)S(=O)(=O)c1ccc2[nH]c(O)c(C3=Nc4ccccc4C3=O)c2c1	26.7	> 100	29.9	47.2	94	> 100	70.1	36.2	44.7	> 100
O=C(/C=C/c1ccc(-c2ccccc2)cc1)NCc1ccc(C(=O)NCCc2ccccc2)cc1	> 100	> 100	> 100	> 100	> 100	> 100	> 100	> 100	> 100	> 100
CCOC(=O)C(C)c1nc2cc(F)c(F)cc2[nH]c1=O (stereo not given)	> 100	> 100	> 100	> 100	> 100	> 100	> 100	> 100	> 100	> 100
COc1ccc(-c2nc3ccccc3c(=O)[nH]2)cc1	> 100	> 100	> 100	> 100	> 100	> 100	> 100	> 100	> 100	> 100
NC(Cc1ccccc1)C(=O)OCN1C(=O)C2C3C=CC(C2C1=O)C1C(=O)N(COC(=O)C(N)Cc2ccccc2)C(=O)C31 (stereo not given)	> 100	> 100	> 100	> 100	> 100	> 100	> 100	51.3	52	> 100
CC(=O)c1csc2c1C(=O)c1ccccc1C2=O	3	2.92	3.59	4.36	3.21	7.11	7.85	> 66.7	10.6	5.07
COC(=O)[C@@H]1c2c(oc3cc(CO)cc(O)c3c2=O)C=C[C@H]1O	35.7	21.5	36	40	11.7	21.7	5.98	> 100	28.9	18.1
